Experimental data as given in patent US10207993B2 (priority 2014, dated 2019).

Legend:
H37Rv = test: microbe, parasite or virus in culture; type: cell-based, M. tuberculosis; settings: for inhibition at 0.5 µM: Mycobacterium tuberculosis, H37RV, THP-1, 90 h, read-out: H37Rv % Inhibition at 500 nM; for H37Rv % Inhibition at 500 nM: 0.5 µM
GPR109A = GPR109A (Homo sapiens, UniProt Q8TDS4); type: cell-based
GPR109A, sequence (Q8TDS4 whole entry): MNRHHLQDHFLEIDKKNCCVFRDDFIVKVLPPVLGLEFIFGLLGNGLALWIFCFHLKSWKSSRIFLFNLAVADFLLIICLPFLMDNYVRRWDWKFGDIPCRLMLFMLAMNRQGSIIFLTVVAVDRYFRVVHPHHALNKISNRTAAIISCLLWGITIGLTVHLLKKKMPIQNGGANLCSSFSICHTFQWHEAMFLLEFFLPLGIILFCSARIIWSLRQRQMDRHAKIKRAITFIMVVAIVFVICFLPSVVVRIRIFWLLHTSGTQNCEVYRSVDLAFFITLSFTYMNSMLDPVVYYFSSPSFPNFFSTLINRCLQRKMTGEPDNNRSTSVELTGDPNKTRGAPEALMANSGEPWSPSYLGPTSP

Compound: O=C(NC1CCCN(Cc2ccccc2)C1)C(O)(c1ccccc1)c1ccccc1 (stereo in doubt) [Compound 1029, (R)-N-(1-Benzylpiperidin-3-yl)-2-hydroxy-2,2-diphenylacetamide]
- inhibition at 0.5 µM (H37Rv): 61%

Compound: CN1CCCC(NC(=O)C(O)(c2ccccc2)c2ccccc2)C1 (stereo in doubt) [Compound 1032, (R)-2-Hydroxy-N-(1-methylpiperidin-3-yl)-2,2-diphenylacetamide]
- H37Rv % Inhibition at 500 nM (H37Rv): 72%

Compound: CN1CCCC(NC(=O)[C@H](O)c2ccccc2)C1 (stereo in doubt) [Compound 1045, (R)-2-Hydroxy-N-((S)-1-methylpiperidin-3-yl)-2-phenylacetamide]
- H37Rv % Inhibition at 500 nM (H37Rv): 66%

Compound: O=C(Nc1cccnc1)C(O)c1ccccc1 (stereo in doubt) [Compound 1046, (S)-2-Hydroxy-2-phenyl-N-(pyridin-3-yl)acetamide]
- inhibition at 0.5 µM (H37Rv): 56%

Compound: CN1CCC(OC(=O)C(O)c2ccccc2)CC1 (stereo in doubt) [Compound 1047, (S)-1-Methylpiperidin-4-yl 2-hydroxy-2-phenylacetate]
- H37Rv % Inhibition at 500 nM (H37Rv): 68%

Compound: COC(C(=O)OC1CCCN(C)C1)c1ccccc1 (stereo in doubt) [Compound 1059, (S)-(R)-1-Methylpiperidin-3-yl 2-methoxy-2-phenylacetate]
- inhibition at 0.5 µM (H37Rv): 74%

Compound: CC(O)CC(=O)O (centres unmarked) [Compound 3HBA, 3-hydroxybutyric acid]
- effect on intracellular cAMP levels (GPR109A): reduces intracellular cAMP levels

Compound: C[N+]12CCC(CC1)C(OC(=O)C(O)(c1ccccc1)c1ccccc1)C2 (centres unmarked) [Compound 1008, 3-(2-Hydroxy-2,2-diphenylacetoxy)-1-methylquinuclidin-1-ium]
- inhibition at 0.5 µM (H37Rv): 42%

Compound: O=C(NC1CCCNC1)C(O)(c1ccccc1)c1ccccc1 (centres unmarked) [Compound 1016, 2-Hydroxy-2,2-diphenyl-N-(piperidin-3-yl)acetamide]
- inhibition at 0.5 µM (H37Rv): 65%

Compound: O=C(NC1CCN(Cc2ccccc2)CC1)C(O)(c1ccccc1)c1ccccc1 [Compound 1017, N-(1-Benzylpiperidin-4-yl)-2-hydroxy-2,2-diphenylacetamide]
- inhibition at 0.5 µM (H37Rv): 75%

Compound: CN1CCCC(NC(=O)C(O)(c2ccccc2)c2ccccc2)C1 (centres unmarked) [Compound 1020, 2-Hydroxy-N-(1-methylpiperidin-3-yl)-2,2-diphenylacetamide]
- inhibition at 0.5 µM (H37Rv): 64%

Compound: O=C(NC1CCN(Cc2ccccc2)CC1)C(O)(c1ccccc1)c1ccccc1 [Compound 1021, N-(1-Benzylpiperidin-4-yl)-2-hydroxy-2,2-diphenylacetamide]
- H37Rv % Inhibition at 500 nM (H37Rv): 74%

Compound: O=C(NC1CN(Cc2ccccc2)C1)C(O)(c1ccccc1)c1ccccc1 [Compound 1022, N-(1-Benzylazetidin-3-yl)-2-hydroxy-2,2-diphenylacetamide]
- inhibition at 0.5 µM (H37Rv): 75%

Compound: O=C(N[C@@H]1CCCN(Cc2ccccc2)C1)C(O)(c1ccccc1)c1ccccc1 [Compound 1028, (R)-N-(1-Benzylpiperidin-3-yl)-2-hydroxy-2,2-diphenylacetamide]
- inhibition at 0.5 µM (H37Rv): 77%

Compound: O=C(NC1CCNCC1)C(O)(c1ccccc1)c1ccccc1 [Compound 1030, 2-Hydroxy-2,2-diphenyl-N-(piperidin-4-yl)acetamide]
- inhibition at 0.5 µM (H37Rv): 52%

Compound: CN1CCC[C@H](NC(=O)C(O)(c2ccccc2)c2ccccc2)C1 [Compound 1031, (S)-2-Hydroxy-N-(1-methylpiperidin-3-yl)-2,2-diphenylacetamide]
- inhibition at 0.5 µM (H37Rv): 74%

Compound: O=C(N[C@@H]1CCCN(Cc2ccccc2)C1)C(c1ccccc1)c1ccccc1 [Compound 1034, (R)-N-(1-Benzylpiperidin-3-yl)-2,2-diphenylacetamide]
- inhibition at 0.5 µM (H37Rv): 64%

Compound: O=C(N[C@H]1CCCN(Cc2ccccc2)C1)C(O)c1ccccc1 (stereo partly drawn) [Compound 1035, N-((S)-1-Benzylpiperidin-3-yl)-2-hydroxy-2-phenylacetamide]
- inhibition at 0.5 µM (H37Rv): 62%

Compound: CC(O)(C(=O)N[C@@H]1CCCN(Cc2ccccc2)C1)c1ccccc1 (stereo partly drawn) [Compound 1036, N-((R)-1-Benzylpiperidin-3-yl)-2 hydroxy-2-phenylpropanamide]
- inhibition at 0.5 µM (H37Rv): 58%

Compound: CN1CCC[C@@H](OC(=O)[C@H](O)c2ccccc2)C1 [Compound 1037, (R)-(R)-1-Methylpiperidin-3-yl 2-hydroxy-2-phenylacetate]
- inhibition at 0.5 µM (H37Rv): 40%

Compound: CN1CCC[C@H](OC(=O)[C@H](O)c2ccccc2)C1 [Compound 1038]
- inhibition at 0.5 µM (H37Rv): 56%

Compound: CN1CCC[C@@H](OC(=O)[C@@H](O)c2ccccc2)C1 [Compound 1039]
- inhibition at 0.5 µM (H37Rv): 61%

Compound: CN1CCC[C@H](OC(=O)[C@@H](O)c2ccccc2)C1 [Compound 1040, (S)-(S)-1-Methylpiperidin-3-yl 2-hydroxy-2-phenylacetate]
- inhibition at 0.5 µM (H37Rv): 79%

Compound: CN1CCC(OC(=O)[C@H](O)c2ccccc2)CC1 [Compound 1041, (R)-1-Methylpiperidin-4-yl 2-hydroxy-2-phenylacetate]
- inhibition at 0.5 µM (H37Rv): 71%

Compound: CN1CCC(NC(=O)[C@@H](O)c2ccccc2)CC1 [Compound 1042, (S)-2-Hydroxy-N-(1-methylpiperidin-4-yl)-2-phenylacetamide]
- inhibition at 0.5 µM (H37Rv): 73%

Compound: CN1CCC(NC(=O)[C@H](O)c2ccccc2)CC1 [Compound 1043, (R)-2-Hydroxy-N-(1-methylpiperidin-4-yl)-2-phenylacetamide]
- inhibition at 0.5 µM (H37Rv): 72%

Compound: CN1CCC[C@@H](NC(=O)[C@H](O)c2ccccc2)C1 [Compound 1044, (R)-2-Hydroxy-N-((R)-1-methylpiperidin-3-yl)-2-phenylacetamide]
- inhibition at 0.5 µM (H37Rv): 65%

Compound: O=C(OC1CN(Cc2ccccc2)C1)[C@@H](O)c1ccccc1 [Compound 1048, (S)-1-Benzylazetidin-3-yl 2-hydroxy-2-phenylacetate]
- inhibition at 0.5 µM (H37Rv): 79%

Compound: O=C(NC1CCN(Cc2ccccc2)CC1)[C@H](O)c1ccccc1 [Compound 1051, (R)-N-(1-Benzylpiperidin-4-yl)-2-hydroxy-2-phenylacetamide]
- inhibition at 0.5 µM (H37Rv): 59%

Compound: O=C(NC1CCN(Cc2ccccc2)CC1)[C@@H](O)c1ccccc1 [Compound 1052, (S)-N-(1-Benzylpiperidin-4-yl)-2-hydroxy-2-phenylacetamide]
- inhibition at 0.5 µM (H37Rv): 73%

Compound: C[N+]1(C)CCC[C@@H](OC(=O)[C@H](O)c2ccccc2)C1 [Compound 1053, (R)-3-((R)-2-Hydroxy-2-phenylacetoxy)-1,1-dimethylpiperidin-1-ium]
- inhibition at 0.5 µM (H37Rv): 78%

Compound: C[N+]1(C)CCC[C@H](OC(=O)[C@H](O)c2ccccc2)C1 [Compound 1054, (S)-3-((R)-2-Hydroxy-2-phenylacetoxy)-1,1-dimethylpiperidin-1-ium]
- inhibition at 0.5 µM (H37Rv): 74%

Compound: O=C(Nc1cccnc1)[C@H](O)c1ccccc1 [Compound 1055, (R)-2-Hydroxy-2-phenyl-N-(pyridin-3-yl)acetamide]
- H37Rv % Inhibition at 500 nM (H37Rv): 52%

Compound: CC(=O)O[C@@H](C(=O)O[C@H]1CCCN(C)C1)c1ccccc1 [Compound 1056]
- inhibition at 0.5 µM (H37Rv): 78%

Compound: CN1CC[C@@H](OC(=O)[C@H](O)c2ccccc2)C1 [Compound 1057, (R)-(R)-1-Methylpyrrolidin-3-yl 2-hydroxy-2-phenylacetate]
- inhibition at 0.5 µM (H37Rv): 76%

Compound: CN1CC[C@H](OC(=O)[C@H](O)c2ccccc2)C1 [Compound 1058]
- inhibition at 0.5 µM (H37Rv): 55%

Compound: COC(C(=O)O)c1ccccc1 (centres unmarked) [Compound 1060, 2-Methoxy-2-phenylacetic acid]
- inhibition at 0.5 µM (H37Rv): 78%

Compound: CO[C@@H](C(=O)N1CCOC[C@@H]1C)c1ccccc1 [Compound 1074, (R)-2-Methoxy-1-((S)-3-methylmorpholino)-2-phenylethanone]
- inhibition at 0.5 µM (H37Rv): 24%

Compound: CO[C@@H](C(=O)N1CCOC[C@H]1C)c1ccccc1 [Compound 1075, (R)-2-Methoxy-1-((R)-3-methylmorpholino)-2-phenylethanone]
- inhibition at 0.5 µM (H37Rv): 46%

Compound: CO[C@@H](C(=O)N1CCO[C@H](C)[C@@H]1C)c1ccccc1 [Compound 1076, (R)-1-((2R,3S)-2,3-Dimethylmorpholino)-2-methoxy-2-phenylethanone]
- inhibition at 0.5 µM (H37Rv): 50%

Compound: CO[C@H](C(=O)N1CCOC[C@@H]1C)c1ccccc1 [Compound 1077, (S)-2-Methoxy-1-((S)-3-methylmorpholino)-2-phenylethanone]
- inhibition at 0.5 µM (H37Rv): 52%
